# In patent publication US20200353438A1, “METHOD OF FABRICATING CELL ARRAYS AND USES THEREOF” (StemoniX Inc., priority 2014, published 2020):
# Test system: beating H9 embryonic stem cell derived cardiomyocytes
# Assay: Drug dosing of beating cardiomyocyte hydrogel array, observed by camera
# Assay type: cell-based
# Conditions: 1×16 GelMa array after 3 days incubation, visual camera observation
# Procedure: In one example, a Labcyte Echo Model 555 nano liter sonic dispensing system was used to deliver 2 heart drugs, Satolol an Antiarrhythmic drug and Isoproteronol a […], to the fabricated array. The drugs were diluted to 2.25 uM in cell media nutrient solution to prevent dehydration. The Echo 555 liquid handler revolutionizes liquid handling with acoustic energy. Sound waves eject precisely sized droplets from a source onto a microplate, slide or other surface suspended above the source. […] Fluids are transferred in nanoliter increments. Larger volumes are transferred at the rate of hundreds of droplets per second. By using this non contact method it minimizes any contact that could damage or kill the cells as found in other dispensing methods. It also allows for the use of very small quantities thus allowing users to screen molecules that are scarce or difficult to manufacture thus reducing cost. In addition, the X and Y position of the dispensing head can be precisely located over the N×N array location of interest thereby allowing different locations to have a drug of interest administered.
# beating H9 embryonic stem cell derived cardiomyocytes were used on day 25 of differentiation. After disassociation a vial with 1 mL of suspension was produced. […] Within those it was determined that 8.38×10^5 live cells were present with tryptan blue. […]
Structure (SMILES),effect on refectory period (pause in beating) of irregularly beating heart cells,increase in the heart cells beating (dosing with 10 nM)
CC(C)NCC(O)c1ccc(O)c(O)c1 (centres unmarked) [Isoproteronol],removed the refectory period (pause in beating) of some irregularly beating heart cells,–
CC(C)NCC(O)c1ccc(NS(C)(=O)=O)cc1 (centres unmarked) [Satolol],–,30-40%
